Read-outs that look alike come from different tables or passages of the source.
Legend:
[1] = rats, intragastric decaffeinated green tea (DGT) 200 mg/kg; cited from earlier work
SARS-CoV-2/C57MA14 = tested on: SARS-CoV-2/C57MA14; parameters: species or system BALB/c mice; conditions: mouse, in vivo
SARS-CoV-2 Omicron BA.2 = tested on: SARS-CoV-2 Omicron BA.2; parameters: species or system BALB/c mice; conditions: mouse, in vivo
[2] = tested on: Novel enterovirus D68 (EV-D68); type: cell-based; conditions: for CPE test per cell well: first experiment; for CPE test (virus replication in cell wells) / CPE test (virus replication in the cell wells): wells 1-10; for average inactivation efficiency against virus: 0.2 mM EGCG, EV-D68 virus, three experiments

O=C(O[C@@H]1Cc2c(O)cc(O)cc2O[C@@H]1c1cc(O)c(O)c(O)c1)c1cc(O)c(O)c(O)c1 [EGCG, Epigallocatechin gallate]
+ and −: CPE test (virus replication in cell wells) ([2]; 0.2 mM EGCG + EV-D68 virus, co-incubated 5 minute, third experiment, dilution factor 10^6) | CPE test (virus replication in the cell wells) ([2]; 0.2 mM EGCG + virus, co-incubated 5 minute, dilution factor 10^6, second experiment) | CPE test per cell well ([2]; 1 mM EGCG + EV-D68 virus, 1 minute, dilution factor 10^6, wells 1-10) | CPE test (virus replication in cell wells) ([2]; 1 mM EGCG + EV-D68 virus, co-incubated 5 minute, third experiment, dilution factor 10^6) | CPE test (virus replication in cell wells) ([2]; 1 mM EGCG + virus, 1 minute, dilution factor 10^6, second experiment)
35.78%: average inactivation efficiency against virus ([2]; 5 minutes)
− and +: CPE test per cell well ([2]; 0.2 mM EGCG + EV-D68 virus, 1 minute, dilution factor 10^6, wells 1-10) | CPE test per cell well ([2]; 0.2 mM EGCG + EV-D68 virus, 1 minute, dilution factor 10^7, wells 1-10) | CPE test (virus replication in cell wells) ([2]; 0.2 mM EGCG + virus, 1 minute, dilution factor 10^6, second experiment) | CPE test (virus replication in cell wells) ([2]; 0.2 mM EGCG + virus, 1 minute, dilution factor 10^6, third experiment) | CPE test (virus replication in cell wells) ([2]; 0.2 mM EGCG + virus, 1 minute, dilution factor 10^7, second experiment) | CPE test (virus replication in cell wells) ([2]; 0.2 mM EGCG + virus, 1 minute, dilution factor 10^7, third experiment) | CPE test (virus replication in the cell wells) ([2]; 0.2 mM EGCG + virus, co-incubated 5 minute, dilution factor 10^6, first experiment)
+: CPE test per cell well ([2]; 0.2 mM EGCG + EV-D68 virus, 1 minute, dilution factor 10^1, wells 1-10) | CPE test per cell well ([2]; 0.2 mM EGCG + EV-D68 virus, 1 minute, dilution factor 10^2, wells 1-10) | CPE test per cell well ([2]; 0.2 mM EGCG + EV-D68 virus, 1 minute, dilution factor 10^3, wells 1-10) | CPE test per cell well ([2]; 0.2 mM EGCG + EV-D68 virus, 1 minute, dilution factor 10^4, wells 1-10) | CPE test per cell well ([2]; 0.2 mM EGCG + EV-D68 virus, 1 minute, dilution factor 10^5, wells 1-10) | CPE test (virus replication in cell wells) ([2]; 0.2 mM EGCG + EV-D68 virus, co-incubated 5 minute, third experiment, dilution factor 10^1) | CPE test (virus replication in cell wells) ([2]; 0.2 mM EGCG + EV-D68 virus, co-incubated 5 minute, third experiment, dilution factor 10^2) | CPE test (virus replication in cell wells) ([2]; 0.2 mM EGCG + EV-D68 virus, co-incubated 5 minute, third experiment, dilution factor 10^3) | CPE test (virus replication in cell wells) ([2]; 0.2 mM EGCG + EV-D68 virus, co-incubated 5 minute, third experiment, dilution factor 10^4) | CPE test (virus replication in cell wells) ([2]; 0.2 mM EGCG + EV-D68 virus, co-incubated 5 minute, third experiment, dilution factor 10^5) | CPE test (virus replication in cell wells) ([2]; 0.2 mM EGCG + virus, 1 minute, dilution factor 10^1, second experiment) | CPE test (virus replication in cell wells) ([2]; 0.2 mM EGCG + virus, 1 minute, dilution factor 10^1, third experiment) | CPE test (virus replication in cell wells) ([2]; 0.2 mM EGCG + virus, 1 minute, dilution factor 10^2, second experiment) | CPE test (virus replication in cell wells) ([2]; 0.2 mM EGCG + virus, 1 minute, dilution factor 10^2, third experiment) | CPE test (virus replication in cell wells) ([2]; 0.2 mM EGCG + virus, 1 minute, dilution factor 10^3, second experiment) | CPE test (virus replication in cell wells) ([2]; 0.2 mM EGCG + virus, 1 minute, dilution factor 10^3, third experiment) | CPE test (virus replication in cell wells) ([2]; 0.2 mM EGCG + virus, 1 minute, dilution factor 10^4, second experiment) | CPE test (virus replication in cell wells) ([2]; 0.2 mM EGCG + virus, 1 minute, dilution factor 10^4, third experiment) | CPE test (virus replication in cell wells) ([2]; 0.2 mM EGCG + virus, 1 minute, dilution factor 10^5, second experiment) | CPE test (virus replication in cell wells) ([2]; 0.2 mM EGCG + virus, 1 minute, dilution factor 10^5, third experiment) | CPE test (virus replication in the cell wells) ([2]; 0.2 mM EGCG + virus, co-incubated 5 minute, dilution factor 10^1, first experiment) | CPE test (virus replication in the cell wells) ([2]; 0.2 mM EGCG + virus, co-incubated 5 minute, dilution factor 10^1, second experiment) | CPE test (virus replication in the cell wells) ([2]; 0.2 mM EGCG + virus, co-incubated 5 minute, dilution factor 10^2, first experiment) | CPE test (virus replication in the cell wells) ([2]; 0.2 mM EGCG + virus, co-incubated 5 minute, dilution factor 10^2, second experiment) | CPE test (virus replication in the cell wells) ([2]; 0.2 mM EGCG + virus, co-incubated 5 minute, dilution factor 10^3, first experiment) | CPE test (virus replication in the cell wells) ([2]; 0.2 mM EGCG + virus, co-incubated 5 minute, dilution factor 10^3, second experiment) | CPE test (virus replication in the cell wells) ([2]; 0.2 mM EGCG + virus, co-incubated 5 minute, dilution factor 10^4, first experiment) | CPE test (virus replication in the cell wells) ([2]; 0.2 mM EGCG + virus, co-incubated 5 minute, dilution factor 10^4, second experiment) | CPE test (virus replication in the cell wells) ([2]; 0.2 mM EGCG + virus, co-incubated 5 minute, dilution factor 10^5, first experiment) | CPE test (virus replication in the cell wells) ([2]; 0.2 mM EGCG + virus, co-incubated 5 minute, dilution factor 10^5, second experiment) | CPE test per cell well ([2]; 1 mM EGCG + EV-D68 virus, 1 minute, dilution factor 10^1, wells 1-10) | CPE test per cell well ([2]; 1 mM EGCG + EV-D68 virus, 1 minute, dilution factor 10^2, wells 1-10) | CPE test per cell well ([2]; 1 mM EGCG + EV-D68 virus, 1 minute, dilution factor 10^3, wells 1-10) | CPE test per cell well ([2]; 1 mM EGCG + EV-D68 virus, 1 minute, dilution factor 10^4, wells 1-10) | CPE test per cell well ([2]; 1 mM EGCG + EV-D68 virus, 1 minute, dilution factor 10^5, wells 1-10) | CPE test (virus replication in cell wells) ([2]; 1 mM EGCG + EV-D68 virus, co-incubated 5 minute, third experiment, dilution factor 10^1) | CPE test (virus replication in cell wells) ([2]; 1 mM EGCG + EV-D68 virus, co-incubated 5 minute, third experiment, dilution factor 10^2) | CPE test (virus replication in cell wells) ([2]; 1 mM EGCG + EV-D68 virus, co-incubated 5 minute, third experiment, dilution factor 10^3) | CPE test (virus replication in cell wells) ([2]; 1 mM EGCG + EV-D68 virus, co-incubated 5 minute, third experiment, dilution factor 10^4) | CPE test (virus replication in cell wells) ([2]; 1 mM EGCG + EV-D68 virus, co-incubated 5 minute, third experiment, dilution factor 10^5) | CPE test (virus replication in cell wells) ([2]; 1 mM EGCG + virus, 1 minute, dilution factor 10^1, second experiment) | CPE test (virus replication in cell wells) ([2]; 1 mM EGCG + virus, 1 minute, dilution factor 10^1, third experiment) | CPE test (virus replication in cell wells) ([2]; 1 mM EGCG + virus, 1 minute, dilution factor 10^2, second experiment) | CPE test (virus replication in cell wells) ([2]; 1 mM EGCG + virus, 1 minute, dilution factor 10^2, third experiment) | CPE test (virus replication in cell wells) ([2]; 1 mM EGCG + virus, 1 minute, dilution factor 10^3, second experiment) | CPE test (virus replication in cell wells) ([2]; 1 mM EGCG + virus, 1 minute, dilution factor 10^3, third experiment) | CPE test (virus replication in cell wells) ([2]; 1 mM EGCG + virus, 1 minute, dilution factor 10^4, second experiment) | CPE test (virus replication in cell wells) ([2]; 1 mM EGCG + virus, 1 minute, dilution factor 10^4, third experiment) | CPE test (virus replication in cell wells) ([2]; 1 mM EGCG + virus, 1 minute, dilution factor 10^5, second experiment) | CPE test (virus replication in cell wells) ([2]; 1 mM EGCG + virus, 1 minute, dilution factor 10^5, third experiment)
significantly reduced: nucleic acid loads of SARS-CoV-2 Omicron BA.2 in lungs and turbinates (SARS-CoV-2 Omicron BA.2)
−: CPE test per cell well ([2]; 0.2 mM EGCG + EV-D68 virus, 1 minute, dilution factor 10^8, wells 1-10) | CPE test (virus replication in cell wells) ([2]; 0.2 mM EGCG + EV-D68 virus, co-incubated 5 minute, third experiment, dilution factor 10^7) | CPE test (virus replication in cell wells) ([2]; 0.2 mM EGCG + EV-D68 virus, co-incubated 5 minute, third experiment, dilution factor 10^8) | CPE test (virus replication in cell wells) ([2]; 0.2 mM EGCG + virus, 1 minute, dilution factor 10^8, second experiment) | CPE test (virus replication in cell wells) ([2]; 0.2 mM EGCG + virus, 1 minute, dilution factor 10^8, third experiment) | CPE test (virus replication in the cell wells) ([2]; 0.2 mM EGCG + virus, co-incubated 5 minute, dilution factor 10^7, first experiment) | CPE test (virus replication in the cell wells) ([2]; 0.2 mM EGCG + virus, co-incubated 5 minute, dilution factor 10^7, second experiment) | CPE test (virus replication in the cell wells) ([2]; 0.2 mM EGCG + virus, co-incubated 5 minute, dilution factor 10^8, first experiment) | CPE test (virus replication in the cell wells) ([2]; 0.2 mM EGCG + virus, co-incubated 5 minute, dilution factor 10^8, second experiment) | CPE test per cell well ([2]; 1 mM EGCG + EV-D68 virus, 1 minute, dilution factor 10^7, wells 1-10) | CPE test per cell well ([2]; 1 mM EGCG + EV-D68 virus, 1 minute, dilution factor 10^8, wells 1-10) | CPE test (virus replication in cell wells) ([2]; 1 mM EGCG + EV-D68 virus, co-incubated 5 minute, third experiment, dilution factor 10^7) | CPE test (virus replication in cell wells) ([2]; 1 mM EGCG + EV-D68 virus, co-incubated 5 minute, third experiment, dilution factor 10^8)
12.30%: average inactivation efficiency against virus ([2]; 1 minute)
significantly reduce: viral nucleic acid loads in lungs and turbinates (SARS-CoV-2/C57MA14)
0.1%: bioavailability of EGCG [1]
60%: mice protected from death caused by lethal dose infection (SARS-CoV-2/C57MA14)
